This test has as its target T1, Lanosterol synthase (Homo sapiens, UniProt P48449).
T1 sequence (P48449 whole entry): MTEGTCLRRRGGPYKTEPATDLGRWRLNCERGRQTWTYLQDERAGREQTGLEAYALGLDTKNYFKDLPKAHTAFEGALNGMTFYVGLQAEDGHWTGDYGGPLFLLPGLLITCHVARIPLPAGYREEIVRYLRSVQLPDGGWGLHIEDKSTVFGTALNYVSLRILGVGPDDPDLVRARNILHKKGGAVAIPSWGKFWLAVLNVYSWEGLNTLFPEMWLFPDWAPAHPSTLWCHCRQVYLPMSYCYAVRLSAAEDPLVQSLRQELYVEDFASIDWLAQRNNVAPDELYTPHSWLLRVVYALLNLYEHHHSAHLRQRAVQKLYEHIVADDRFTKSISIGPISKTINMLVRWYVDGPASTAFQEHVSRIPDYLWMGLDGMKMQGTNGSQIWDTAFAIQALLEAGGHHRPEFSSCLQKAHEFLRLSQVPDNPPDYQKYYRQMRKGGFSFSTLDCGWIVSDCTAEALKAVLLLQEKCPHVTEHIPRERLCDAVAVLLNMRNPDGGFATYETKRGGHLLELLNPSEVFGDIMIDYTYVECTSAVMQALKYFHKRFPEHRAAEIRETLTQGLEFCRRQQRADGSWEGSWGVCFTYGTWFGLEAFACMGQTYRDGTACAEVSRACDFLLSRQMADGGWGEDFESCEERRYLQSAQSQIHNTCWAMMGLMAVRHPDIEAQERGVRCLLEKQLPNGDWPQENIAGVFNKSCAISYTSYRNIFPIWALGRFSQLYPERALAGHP
Kind of test: Inhibition of oxidosqualene cyclase.

As to `C=CCN(C)CCCCCCOc1ccc2c(-c3ccc(Br)cc3)nn(C)c2c1`, the IC50 (commonly the concentration at which inhibition is half-maximal) stood at 19 nM.

For the origin of these results see BindingDB's records for doi:10.1021/jm0704651 (University of Turin, 2007).
